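Five compound concentrations were applied to cells in 96-well plates for 48 hours; endpoints were derived by simple linear interpolation of the resulting dose-response curve. Definition used: TGI = concentration required for complete inhibition of growth.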
Key:
Assay in all cases: NCI anticancer screen, dose series, 48 h
786-0 renal = test system: 786-0 renal
A549 NSCLC = test system: A549 NSCLC
ACHN renal = test system: ACHN renal
CCRF-CEM leukemia = test system: CCRF-CEM leukemia
COLO 205 colon = test system: COLO 205 colon
DLD-1 colon = test system: DLD-1 colon
DMS 114 small cell lung = test system: DMS 114 small cell lung
DMS 273 small cell lung = test system: DMS 273 small cell lung
EKVX NSCLC = test system: EKVX NSCLC
HCC-2998 colon = test system: HCC-2998 colon
HCT-15 colon = test system: HCT-15 colon
HL-60(TB) leukemia = test system: HL-60(TB) leukemia
HOP-62 NSCLC = test system: HOP-62 NSCLC
IGROV1 ovarian = test system: IGROV1 ovarian
K-562 leukemia = test system: K-562 leukemia
KM12 colon = test system: KM12 colon
LOX IMVI melanoma = test system: LOX IMVI melanoma
LXFL 529 NSCLC = test system: LXFL 529 NSCLC
M14 melanoma = test system: M14 melanoma
M19-MEL melanoma = test system: M19-MEL melanoma
MALME-3M melanoma = test system: MALME-3M melanoma
MOLT-4 leukemia = test system: MOLT-4 leukemia
NCI-H226 lung = test system: NCI-H226 lung
NCI-H23 lung = test system: NCI-H23 lung
NCI-H522 lung = test system: NCI-H522 lung
OVCAR-3 ovarian = test system: OVCAR-3 ovarian
OVCAR-4 ovarian = test system: OVCAR-4 ovarian
OVCAR-5 ovarian = test system: OVCAR-5 ovarian
OVCAR-8 ovarian = test system: OVCAR-8 ovarian
RPMI-8226 leukemia = test system: RPMI-8226 leukemia
RXF 393 renal = test system: RXF 393 renal
SF-268 CNS = test system: SF-268 CNS
SF-295 CNS = test system: SF-295 CNS
SF-539 CNS = test system: SF-539 CNS
SK-MEL-2 melanoma = test system: SK-MEL-2 melanoma
SK-MEL-28 melanoma = test system: SK-MEL-28 melanoma
SK-MEL-5 melanoma = test system: SK-MEL-5 melanoma
SK-OV-3 ovarian = test system: SK-OV-3 ovarian
SN12C renal = test system: SN12C renal
SNB-19 CNS = test system: SNB-19 CNS
SNB-75 CNS = test system: SNB-75 CNS
SNB-78 CNS = test system: SNB-78 CNS
SR leukemia = test system: SR leukemia
SW-620 colon = test system: SW-620 colon
TK-10 renal = test system: TK-10 renal
U251 CNS = test system: U251 CNS
UACC-257 melanoma = test system: UACC-257 melanoma
UACC-62 melanoma = test system: UACC-62 melanoma
UO-31 renal = test system: UO-31 renal
XF 498 CNS = test system: XF 498 CNS

Measured: TGI

CCC1CCc2c(OC)ccc(OCC(=O)O)c2C1=O (stereo not given)
> 100 µM: 786-0 renal | A549 NSCLC | ACHN renal | CCRF-CEM leukemia | COLO 205 colon | DLD-1 colon | DMS 114 small cell lung | DMS 273 small cell lung | EKVX NSCLC | HCC-2998 colon | HCT-15 colon | HL-60(TB) leukemia | HOP-62 NSCLC | IGROV1 ovarian | K-562 leukemia | KM12 colon | LOX IMVI melanoma | LXFL 529 NSCLC | M14 melanoma | M19-MEL melanoma | MALME-3M melanoma | MOLT-4 leukemia | NCI-H226 lung | NCI-H23 lung | NCI-H522 lung | OVCAR-3 ovarian | OVCAR-4 ovarian | OVCAR-5 ovarian | OVCAR-8 ovarian | RPMI-8226 leukemia | RXF 393 renal | SF-268 CNS | SF-295 CNS | SF-539 CNS | SK-MEL-2 melanoma | SK-MEL-28 melanoma | SK-MEL-5 melanoma | SK-OV-3 ovarian | SN12C renal | SNB-19 CNS | SNB-75 CNS | SNB-78 CNS | SR leukemia | SW-620 colon | TK-10 renal | U251 CNS | UACC-257 melanoma | UACC-62 melanoma | UO-31 renal | XF 498 CNS

From PubChem BioAssay (NCI)
